According to US9402842B2, “Synthesis and use of dual tyrosyl-DNA phosphodiesterase I (Tdp1)—topoisomerase I (Top1) inhibitors” (Purdue Research Foundation, priority 2012, dated 2016):
Structures can show the parent of a compound that is named as a salt. Where two headings read alike, the source gives them in different places.

Experiments:
human recombinant Top1 = human recombinant Top1 (Homo sapiens (Human), UniProt P11387); assay: Topoisomerase I-mediated DNA cleavage reactions; design: Top1 inhibition (text of part A): key to the marks not given beside the values; conditions: for Top1, compound-induced DNA cleavage due to Top1 inhibition: semiquantitative scale relative to 1 μM camptothecin (90) or MJ-III-65 (91)
[1] = system: single-stranded DNA substrate; assay: Surface plasmon resonance, binding to single-stranded DNA substrate; conditions: SPR
[2] = system: all human cancer cell lines successfully tested; assay: NCI screen, mean graph midpoint (MGM) for growth inhibition; type: cell-based; conditions: for GI50: read-out: MGM GI50
recombinant human Tdp1 = recombinant human Tdp1 (Homo sapiens (Human), UniProt Q9NUW8); assay: Gel-based assay measuring the inhibition of recombinant Tdp1; type: biochemical; conditions: for IC50: read-out: Tdp1 (semiquantitative IC50 scale)
Description: Tdp1 inhibitory activity was measured by the drug's ability to inhibit the hydrolysis of the phosphodiester linkage between tyrosine and the 3′-end of the DNA substrate, and to prevent the generation of an oligonucleotide with a free 3′-phosphate (N14P). Therefore, the disappearance of the gel band for N14P indicated Tdp1 inhibition.
Gel-based Assay Measuring the Inhibition of Recombinant Tdp1.
A 5′-[^32P]-labeled single-stranded DNA oligonucleotide containing a 3′-phosphotyrosine (N14Y) was generated as described by Dexheimer et al. The DNA substrate was then incubated with 5 pM recombinant Tdp1 in the absence or presence of inhibitor for 15 min at room temperature in a buffer containing 50 mM Tris HCl, pH 7.5, 80 mM KCl, 2 mM EDTA, 1 mM DTT, 40 μg/ml BSA and 0.01% Tween-20. […] Gel images were scanned using a Typhoon 8600 (GE Healthcare) and densitometric analyses were performed using the ImageQuant software (GE Healthcare).

SN12C = assay: NCI screen cytotoxicity, renal SN12C; conditions: read-out: Cytotoxicity (GI50 in μM) renal SN12C; 50% growth inhibition
DU-145 = assay: NCI screen cytotoxicity, prostate DU-145; conditions: read-out: Cytotoxicity (GI50 in μM) prostate DU-145; 50% growth inhibition
MDA-MB-435 = assay: NCI screen cytotoxicity, breast MDA-MB-435; conditions: read-out: Cytotoxicity (GI50 in μM) breast MDA-MB-435; 50% growth inhibition
SF-539 = assay: NCI screen cytotoxicity, CNS SF-539; conditions: read-out: Cytotoxicity (GI50 in μM) CNS SF-539; 50% growth inhibition
OVCAR-3 = assay: NCI screen cytotoxicity, ovarian OVCAR-3; conditions: read-out: Cytotoxicity (GI50 in μM) ovarian OVCAR-3; 50% growth inhibition
HOP-62 = assay: NCI screen cytotoxicity, lung HOP-62; conditions: read-out: Cytotoxicity (GI50 in μM) lung HOP-62; 50% growth inhibition
UACC-62 = assay: NCI screen cytotoxicity, melanoma UACC-62; conditions: read-out: Cytotoxicity (GI50 in μM) melanoma UACC-62; 50% growth inhibition
HCT-116 = assay: NCI screen cytotoxicity, colon HCT-116; conditions: read-out: Cytotoxicity (GI50 in μM) colon HCT-116; 50% growth inhibition
[3] = Homo sapiens, read-out: MGM (μM)
[4] = mean graph midpoint for growth inhibition of all human cancer cell lines successfully tested, read-out: MGM

Chain of human recombinant Top1 (P11387 whole entry): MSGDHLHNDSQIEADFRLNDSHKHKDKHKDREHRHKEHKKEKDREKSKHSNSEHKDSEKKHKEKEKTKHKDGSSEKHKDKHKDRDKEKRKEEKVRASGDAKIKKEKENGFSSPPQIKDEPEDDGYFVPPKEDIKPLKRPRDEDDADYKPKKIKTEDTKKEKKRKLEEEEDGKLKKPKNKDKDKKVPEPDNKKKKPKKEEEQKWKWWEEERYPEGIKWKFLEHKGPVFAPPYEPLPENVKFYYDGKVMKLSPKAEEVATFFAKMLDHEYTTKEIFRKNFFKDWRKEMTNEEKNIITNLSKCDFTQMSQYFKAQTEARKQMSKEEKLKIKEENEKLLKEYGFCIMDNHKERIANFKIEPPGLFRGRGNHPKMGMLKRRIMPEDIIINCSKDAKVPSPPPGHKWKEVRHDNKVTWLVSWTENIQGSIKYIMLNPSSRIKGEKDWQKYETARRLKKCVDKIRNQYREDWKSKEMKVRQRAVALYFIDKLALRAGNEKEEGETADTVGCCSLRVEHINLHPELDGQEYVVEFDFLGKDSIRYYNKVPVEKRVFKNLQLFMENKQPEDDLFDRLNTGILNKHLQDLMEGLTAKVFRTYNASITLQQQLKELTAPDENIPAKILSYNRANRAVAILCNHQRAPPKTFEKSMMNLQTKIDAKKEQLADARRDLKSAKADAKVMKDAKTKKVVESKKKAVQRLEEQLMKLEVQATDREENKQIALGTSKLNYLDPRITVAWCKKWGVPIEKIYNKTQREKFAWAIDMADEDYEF
Chain of recombinant human Tdp1 (Q9NUW8 whole entry): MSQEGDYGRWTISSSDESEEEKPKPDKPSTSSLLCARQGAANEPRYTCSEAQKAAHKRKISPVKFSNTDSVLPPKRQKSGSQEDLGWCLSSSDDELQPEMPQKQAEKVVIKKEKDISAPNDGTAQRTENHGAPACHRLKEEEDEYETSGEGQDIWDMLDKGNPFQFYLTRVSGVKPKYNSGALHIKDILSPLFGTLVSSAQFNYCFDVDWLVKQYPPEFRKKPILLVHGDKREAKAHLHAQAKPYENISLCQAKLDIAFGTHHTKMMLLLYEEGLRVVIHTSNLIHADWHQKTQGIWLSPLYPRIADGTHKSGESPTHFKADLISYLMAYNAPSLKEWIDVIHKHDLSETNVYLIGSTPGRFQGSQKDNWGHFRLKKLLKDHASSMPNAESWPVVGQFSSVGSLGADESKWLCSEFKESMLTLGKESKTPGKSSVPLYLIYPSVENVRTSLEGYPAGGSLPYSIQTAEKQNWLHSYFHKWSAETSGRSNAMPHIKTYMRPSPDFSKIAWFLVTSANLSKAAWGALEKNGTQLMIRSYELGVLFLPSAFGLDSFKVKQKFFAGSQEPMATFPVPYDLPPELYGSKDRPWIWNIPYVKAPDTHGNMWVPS

Compound: (6-Methyl-5,11-dioxo-6,11-dihydro-5H-indeno[1,2-c]isoquinolin-3-yl)-carbamic Acid [Compound 14 of (B)]
- Top1, compound-induced DNA cleavage due to Top1 inhibition (human recombinant Top1): ++
- binding to the single-stranded DNA substrate [1]: did not bind

Compound: COC(=O)CCCCC(=O)Nc1ccc2c3c(n(CCCN)c(=O)c2c1)-c1ccccc1C3=O [Compound 26 of (B), Methyl 6-[(6-(3-Aminopropyl)-5,11-dioxo-6,11-dihydro-5H-indeno[1,2-c]isoquinolin-3-yl)amino]-6-oxohexanoate]
- Top1, compound-induced DNA cleavage due to Top1 inhibition (human recombinant Top1): (+)
- IC50 [2, 3]: 2.34 µM
- IC50 (recombinant human Tdp1; determined by duplicate): 37 to 111 µM

Compound: NCCCn1c2c(c3ccc(N)cc3c1=O)C(=O)c1ccccc1-2 [Compound 62 of (B)]
- GI50 (SN12C): 0.23 µM
- IC50 [2, 3]: 0.16 µM
- GI50 (DU-145): 0.12 µM
- GI50 (MDA-MB-435): 0.23 µM
- GI50 (SF-539): 0.34 µM
- GI50 (OVCAR-3): 0.13 µM
- GI50 (HOP-62): 0.27 µM
- GI50 (UACC-62): 0.3 µM
- GI50 (HCT-116): 0.18 µM

Compound: COc1ccc2c(c1)-c1c(c3ccc([N+](=O)[O-])cc3c(=O)n1CCCN)C2=O.Cl [Compound 51 of (B), 6-(3-Aminopropyl)-5,6-dihydro-8-methoxy-3-nitro-5,11-dioxo-11H-indeno[1,2-c]isoquinoline Hydrochloride]
- GI50 (SN12C): 0.15 µM
- Top1, compound-induced DNA cleavage due to Top1 inhibition (human recombinant Top1): ++
- IC50 [2, 3]: 0.17 ± 0.017 µM
- GI50 (DU-145): 0.18 µM
- GI50 (MDA-MB-435): 0.58 µM
- GI50 (SF-539): 0.61 µM
- IC50 (recombinant human Tdp1): 12 to 37 µM
- GI50 (OVCAR-3): 0.54 µM
- GI50 (HCT-116): 0.06 µM

Compound: O=C1c2ccccc2-c2c1c1ccc([N+](=O)[O-])cc1c(=O)n2CCCO [Compound 63 of (B)]
- GI50 (SN12C): 0.47 µM
- IC50 [2, 3]: 0.89 ± 0.22 µM
- GI50 (DU-145): 0.43 µM
- GI50 (MDA-MB-435): 1.97 µM
- GI50 (OVCAR-3): 0.87 µM
- GI50 (UACC-62): 0.31 µM
- GI50 (HCT-116): 0.19 µM

Compound: COC(=O)C(=O)Nc1ccc2c3c(n(CCCN)c(=O)c2c1)-c1ccccc1C3=O [Compound 22 of (B), Methyl 2-[(6-(3-Aminopropyl)-5,11-dioxo-6,11-dihydro-5H-indeno[1,2-c]isoquinolin-3-yl)amino]-2-oxoacetate]
- Top1, compound-induced DNA cleavage due to Top1 inhibition (human recombinant Top1): 0
- IC50 [2, 3]: 1.86 ± 0.38 µM

Compound: COc1ccc2c(c1)C(=O)c1c-2n(CCCN)c(=O)c2cc([N+](=O)[O-])ccc12 [Compound 54 of (B)]
- GI50 (SN12C): < 0.01 µM
- IC50 [2, 3]: 0.02 ± 0.0008 µM
- GI50 (HOP-62): < 0.01 µM
- GI50 (UACC-62): < 0.01 µM
- GI50 (HCT-116): < 0.01 µM

Compound: O=C(O)C(F)(F)F.O=C(O)C(F)(F)F.O=C1c2ccccc2-c2c1c1ccccc1c(=O)n2CCCNCCCNCCCn1c2c(c3ccccc3c1=O)C(=O)c1ccccc1-2 [Compound 145, Bis-1,3-{(5,6-dihydro-5,11-diketo-11H-indeno[1,2-c]isoquinoline)-6-propyl-amino}propane Bis(trifluoroacetate)]
- Top1 inhibition (text of part A) (human recombinant Top1; semiquantitative scale relative to 1 μM camptothecin): ++++
- GI50 ([2]; mean graph midpoint, NCI cancer cell line screen): 394 nM

Compound: CCOC(=O)CNc1ccc2c3c(n(CCCN)c(=O)c2c1)-c1ccccc1C3=O [Compound 40 of (B), Ethyl 2-[(6-(3-Aminopropyl)-5,11-dioxo-6,11-dihydro-5H-indeno[1,2-c]isoquinolin-3-yl)amino]acetate Hydrochloride]
- GI50 (SN12C): 1.75 µM
- IC50 [2, 3]: 1.69 µM
- GI50 (DU-145): 1.68 µM
- GI50 (MDA-MB-435): 3.05 µM
- GI50 (SF-539): 8.91 µM
- GI50 (OVCAR-3): 3.12 µM
- GI50 (HOP-62): 0.93 µM
- GI50 (UACC-62): 2.25 µM
- GI50 (HCT-116): 0.44 µM

Compound: CS(=O)(=O)NCCCCCCCCCCCn1c2c(c3ccccc3c1=O)C(=O)c1ccccc1-2 [Compound 89, N-(11-(5,11-Dioxo-5H-indeno[1,2-c]isoquinolin-6(11H)-yl)undecyl)-methanesulfonamide]
- Top1, compound-induced DNA cleavage due to Top1 inhibition (human recombinant Top1): ++
- GI50 ([2]; Homo sapiens): 40 nM

Compound: Cl.NCCCn1c2c(c3ccc(NCC(=O)O)cc3c1=O)C(=O)c1ccccc1-2 [Compound 43 of (B), 2-((6-(3-Aminopropyl)-5,11-dioxo-6,11-dihydro-5H-indeno[1,2-c]isoquinolin-3-yl)amino)acetic Acid Hydrochloride]
- GI50 (SN12C): 0.49 µM
- Top1, compound-induced DNA cleavage due to Top1 inhibition (human recombinant Top1): 0
- IC50 [2, 3]: 0.87 ± 0.014 µM
- GI50 (DU-145): 1.51 µM
- GI50 (MDA-MB-435): 1.14 µM
- GI50 (SF-539): 1.79 µM
- IC50 (recombinant human Tdp1; determined by duplicate): 1 to 12 µM
- GI50 (OVCAR-3): 1.6 µM
- GI50 (HOP-62): 0.65 µM
- GI50 (UACC-62): 0.72 µM
- GI50 (HCT-116): 0.33 µM

Compound: COC(=O)CCCC(=O)Nc1ccc2c3c(n(CCCN)c(=O)c2c1)-c1ccccc1C3=O [Compound 25 of (B), Methyl 5-[(6-(3-Aminopropyl)-5,11-dioxo-6,11-dihydro-5H-indeno[1,2-c]isoquinolin-3-yl)amino]-5-oxopentanoate]
- Top1, compound-induced DNA cleavage due to Top1 inhibition (human recombinant Top1): 0
- IC50 [2, 3]: 1.09 µM
- IC50 (recombinant human Tdp1; determined by duplicate): 37 to 111 µM

Compound: COc1ccc2c(c1)-c1c(c3ccc([N+](=O)[O-])cc3c(=O)n1CCCn1ccnc1)C2=O [Compound 52 of (B), 6-(3-(1H-Imidazol-1-yl)propyl)-8-methoxy-3-nitro-5H-indeno[1,2-c]isoquinoline-5,11(6H)-dione]
- GI50 (SN12C): < 0.01 µM
- suppression of Top1-mediated DNA cleavage at high drug concentration (human recombinant Top1; high concentration of 100 μM): slight suppression
- Top1, compound-induced DNA cleavage due to Top1 inhibition (human recombinant Top1): +++
- IC50 [2, 4]: 0.02 ± 0.0006 µM
- GI50 (DU-145): < 0.01 µM
- GI50 (MDA-MB-435): 0.03 µM
- Tdp1 (semiquantitative IC50 scale) (recombinant human Tdp1): (+)
- GI50 (OVCAR-3): 0.03 µM
- GI50 (HOP-62): < 0.01 µM
- GI50 (UACC-62): < 0.01 µM
- GI50 (HCT-116): < 0.01 µM

Compound: COc1ccc2c(c1)C(=O)c1c-2n(CCCN)c(=O)c2cc(N)ccc12 [Compound 89 of (B), 3-Amino-6-(3-aminopropyl)-5,6-dihydro-9-methoxy-5,11-dioxo-11H-indeno[1,2-c]isoquinoline Dihydrochloride]
- IC50 [2, 3]: 0.04 µM
- IC50 (recombinant human Tdp1; determined by duplicate): 1 to 12 µM

Compound: N-(6-(5,11-Dioxo-5H-indeno[1,2-c]isoquinolin-6(11H)hexyl)-methanesulfonamide [Compound 84]
- Top1 inhibition (in words) (human recombinant Top1): active
- IC50 [2, 4]: 0.25 ± 0.004 µM
